Patent US20250163057A1, “DCN-1 MODULATING COMPOUNDS AND METHODS OF USE THEREOF” (Cellarity, Inc., priority 2023, published 2025)

Each compound was assayed against DCN1 protein (Homo sapiens (Human), UniProt Q96GG9) (assay: Intact Protein MS Analysis with the RapidFire-TOF System (covalent adduct formation)). Settings: MS Emax; 400 nM DCN1, 3 hours at room temperature.
DCN1 protein, sequence (Q96GG9 whole entry): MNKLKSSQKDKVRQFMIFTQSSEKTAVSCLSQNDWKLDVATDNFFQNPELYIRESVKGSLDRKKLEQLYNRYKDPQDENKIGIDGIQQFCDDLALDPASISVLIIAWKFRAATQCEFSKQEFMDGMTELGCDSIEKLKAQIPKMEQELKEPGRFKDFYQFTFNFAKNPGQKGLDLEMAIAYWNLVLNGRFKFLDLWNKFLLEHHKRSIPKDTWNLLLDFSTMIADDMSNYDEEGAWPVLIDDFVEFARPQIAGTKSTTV
Format: binding
Protocol: An MS assay was performed to evaluate the ability of the compounds to covalently modify DCN-1.
DCN1 protein, His-TEV-DCN1, were expressed in E. Coli. The His-tagged protein was first purified with an Ni-NTA column. The His-tag was cleaved using His-tag TEV protease and the His-tags were removed using a second Ni-NTA column. Protein purity was verified with SDS-PAGE and intact MS. DCN1 was dissolved in a buffer containing 25 mM Tris-HCl, 200 mM NaCl, and 1 mM DTT at 400 nM. 11 concentrations of compounds were added to the DCN1 solution and incubated at room temperature for 3 hours, unless otherwise specified. The reaction plates were quenched by adding 0.2% formic acid. […] The cartridge was re-equilibrated with loading buffer for 1 second before collection of the next sample. The Q-TOF was operated in TOF-only positive ionization mode set to the following parameters: Gas Temp=350 C, Drying Gas=7 l/min, Nebulizer=50 psi, Sheath Gas Temp=400 C, Sheath Gas Flow=12 l/min, Vcap=4000 V, Nozzle Voltage=1000 V, Fragmentor=125 V, Skimmer=65 V and Oct 1 RF Vpp=750V. Raw MS data files were deconvoluted and analyzed using the Agilent MassHunter Bioconfirm software package to identify both parent protein and expected compound adduct mass signatures.
`CCN1C(=O)[C@@H](NC(=O)c2cccc(C(F)(F)F)c2)[C@@H](c2ccc(F)cc2)c2c([C@@H](C)NS(=O)(=O)CCl)nn(-c3ccccc3)c21` (mixture of isomers) [Compound I-215] was tested, and the “% Adduct Formation” value was “+ (MS Emax % adduct formation greater than or equal to 0.0 and less than or equal to 30.0)”.
`CCN1C(=O)[C@@H](NC(=O)c2cccc(C(F)(F)F)c2)[C@@H](c2ccc(F)cc2)c2c([C@@H](C)NC(=O)C3=CCC3)nn(-c3ccccc3)c21` (mixture of isomers) [Compound I-237] was tested, and the “% Adduct Formation” value was “+ (MS Emax % adduct formation greater than or equal to 0.0 and less than or equal to 30.0)”.
In the case of `C/C=C/C(=O)N[C@H](C)c1nn(-c2ccccc2)c2c1[C@H](c1ccc(F)cc1)[C@H](NC(=O)c1cccc(C(F)(F)F)c1)C(=O)N2CC` (mixture of isomers) [Compound I-238], the “% Adduct Formation” value was “+ (MS Emax % adduct formation greater than or equal to 0.0 and less than or equal to 30.0)”.
`CCN1C(=O)[C@@H](NC(=O)c2cccc(C(F)(F)F)c2)[C@@H](c2ccc(F)cc2)c2c(CNC(=O)C(Cl)Cl)nn(-c3ccccc3)c21` (racemic) [Compound I-169] was tested, and the “% Adduct Formation” value was “+ (MS Emax % adduct formation greater than or equal to 0.0 and less than or equal to 30.0)”.
With `CCN1C(=O)[C@@H](NC(=O)c2cccc(C(F)(F)F)c2)[C@@H](c2ccc(F)cc2)c2c(CN3C(=O)C=CC3=O)nn(-c3ccccc3)c21` (racemic) [Compound I-170] the “% Adduct Formation” value was “+ (MS Emax % adduct formation greater than or equal to 0.0 and less than or equal to 30.0)”.
For `CCN1C(=O)[C@@H](NC(=O)c2cccc(C(F)(F)F)c2)[C@@H](c2ccc(F)cc2)c2c(NC(=O)COc3c(F)c(F)cc(F)c3F)nn(-c3ccccc3)c21` (racemic) [Compound I-176], the “% Adduct Formation” value was “+ (MS Emax % adduct formation greater than or equal to 0.0 and less than or equal to 30.0)”.
With `CCN1C(=O)[C@@H](NC(=O)c2cccc(C(F)(F)F)c2)[C@@H](c2ccc(F)cc2)c2c(CNC(=O)COc3c(F)c(F)cc(F)c3F)nn(-c3ccccc3)c21` (racemic) [Compound I-182] the “% Adduct Formation” value was “+ (MS Emax % adduct formation greater than or equal to 0.0 and less than or equal to 30.0)”.
In the case of `CCN1C(=O)[C@@H](NC(=O)c2cccc(C(F)(F)F)c2)[C@@H](c2ccc(F)cc2)c2c(CNC(=O)/C=C/CN3CCOCC3)nn(-c3ccccc3)c21` (racemic) [Compound I-183], the “% Adduct Formation” value was “+ (MS Emax % adduct formation greater than or equal to 0.0 and less than or equal to 30.0)”.
For `C=CS(=O)(=O)Nc1nn(-c2ccccc2)c2c1[C@H](c1ccc(F)cc1)[C@H](NC(=O)c1cccc(C(F)(F)F)c1)C(=O)N2CC` (racemic) [Compound I-187], the “% Adduct Formation” value was “+++ (MS Emax % adduct formation greater than 80.0 and less than or equal to 100.0)”.
With `C=C(C(=O)N(C)C)c1nn(-c2ccccc2)c2c1[C@H](c1ccc(F)cc1)[C@H](NC(=O)c1cccc(C(F)(F)F)c1)C(=O)N2CC` (racemic) [Compound I-188, rac-N-((4R,5R)-3-(3-(dimethylamino)-3-oxoprop-1-en-2-yl)-7-ethyl-4-(4-fluorophenyl)-6-oxo-1-phenyl-4,5,6,7-tetrahydro-1H-pyrazolo[3,4-b]pyridine-5-yl)-3-(trifluoromethyl)benzamide] the “% Adduct Formation” value was “+ (MS Emax % adduct formation greater than or equal to 0.0 and less than or equal to 30.0)”.
In the case of `CCN1C(=O)[C@@H](NC(=O)c2cccc(C(F)(F)F)c2)[C@@H](c2ccc(F)cc2)c2c(C=O)nn(-c3ccccc3)c21` (racemic) [Compound I-189, rac-N-((4R,5R)-7-ethyl-4-(4-fluorophenyl)-3-formyl-6-oxo-1-phenyl-4,5,6,7-tetrahydro-1H-pyrazolo[3,4-b]pyridine-5-yl)-3-(trifluoromethyl)benzamide], the “% Adduct Formation” value was “+ (MS Emax % adduct formation greater than or equal to 0.0 and less than or equal to 30.0)”.
For `CCN1C(=O)[C@@H](NC(=O)c2cccc(C(F)(F)F)c2)[C@@H](c2ccc(F)cc2)c2c(CN3CC=CC3=O)nn(-c3ccccc3)c21` (racemic) [Compound I-193], the “% Adduct Formation” value was “+ (MS Emax % adduct formation greater than or equal to 0.0 and less than or equal to 30.0)”.
`CCN1C(=O)[C@@H](NC(=O)c2cccc(C(F)(F)F)c2)[C@@H](c2ccc(F)cc2)c2c(N3C=CC3=O)nn(-c3ccccc3)c21` (racemic) [Compound I-194, N-((4S,5S)-7-ethyl-4-(4-fluorophenyl)-6-oxo-3-(2-oxoazet-1(2H)-yl)-1-phenyl-4,5,6,7-tetrahydro-1H-pyrazolo[3,4-b]pyridine-5-yl)-3-(trifluoromethyl)benzamide] was tested, and the “% Adduct Formation” value was “+ (MS Emax % adduct formation greater than or equal to 0.0 and less than or equal to 30.0)”.
In the case of `C=C(C(=O)OCC)c1nn(-c2ccccc2)c2c1[C@H](c1ccc(F)cc1)[C@@H](NC(=O)c1cccc(C(F)(F)F)c1)C(=O)N2CC` (racemic) [Compound I-195, rac-ethyl 2-((4R,5S)-7-ethyl-4-(4-fluorophenyl)-6-oxo-1-phenyl-5-(3-(trifluoromethyl)benzamido)-4,5,6,7-tetrahydro-1H-pyrazolo[3,4-b]pyridine-3-yl)acrylate], the “% Adduct Formation” value was “+ (MS Emax % adduct formation greater than or equal to 0.0 and less than or equal to 30.0)”.
In the case of `CCN1C(=O)[C@@H](NC(=O)c2cccc(C(F)(F)F)c2)[C@@H](c2ccc(F)cc2)c2c(CNS(=O)(=O)CCl)nn(-c3ccccc3)c21` (racemic) [Compound I-198], the “% Adduct Formation” value was “+ (MS Emax % adduct formation greater than or equal to 0.0 and less than or equal to 30.0)”.
With `C#Cc1nn(-c2ccccc2)c2c1[C@H](c1ccc(F)cc1)[C@H](NC(=O)c1cccc(C(F)(F)F)c1)C(=O)N2CC` (racemic) [Compound I-199, N-((4S,5S)-7-ethyl-3-ethynyl-4-(4-fluorophenyl)-6-oxo-1-phenyl-4,5,6,7-tetrahydro-1H-pyrazolo[3,4-b]pyridine-5-yl)-3-(trifluoromethyl)benzamide] the “% Adduct Formation” value was “+ (MS Emax % adduct formation greater than or equal to 0.0 and less than or equal to 30.0)”.
`CCN1C(=O)[C@@H](NC(=O)c2cccc(C(F)(F)F)c2)[C@@H](c2ccc(F)cc2)c2c(CN(C)C(=O)C3=CCC3)nn(-c3ccccc3)c21` (racemic) [Compound I-200] was tested, and the “% Adduct Formation” value was “+ (MS Emax % adduct formation greater than or equal to 0.0 and less than or equal to 30.0)”.
With `C=C(C(=O)O)c1nn(-c2ccccc2)c2c1[C@H](c1ccc(F)cc1)[C@@H](NC(=O)c1cccc(C(F)(F)F)c1)C(=O)N2CC` (racemic) [Compound I-208, rac-2-((4R,5S)-7-ethyl-4-(4-fluorophenyl)-6-oxo-1-phenyl-5-(3-(trifluoromethyl)benzamido)-4,5,6,7-tetrahydro-1H-pyrazolo[3,4-b]pyridine-3-yl)acrylic acid] the “% Adduct Formation” value was “+ (MS Emax % adduct formation greater than or equal to 0.0 and less than or equal to 30.0)”.
`CCN1C(=O)[C@@H](NC(=O)c2cccc(C(F)(F)F)c2)[C@@H](c2ccc(F)cc2)c2c([C@H](C)NS(=O)(=O)CCl)nn(-c3ccccc3)c21` (racemic) [Compound I-214] was tested, and the “% Adduct Formation” value was “+ (MS Emax % adduct formation greater than or equal to 0.0 and less than or equal to 30.0)”.
`CCN1C(=O)[C@@H](NC(=O)c2cccc(C(F)(F)F)c2)[C@@H](c2ccc(F)cc2)c2c(C(CCl)C(=O)N(C)C)nn(-c3ccccc3)c21` (mixture of isomers) [Compound I-216, rac-N-((4R,5R)-3-(3-chloro-1-(dimethylamino)-1-oxopropan-2-yl)-7-ethyl-4-(4-fluorophenyl)-6-oxo-1-phenyl-4,5,6,7-tetrahydro-1H-pyrazolo[3,4-b]pyridine-5-yl)-3-(trifluoromethyl)benzamide] was tested, and the “% Adduct Formation” value was “+ (MS Emax % adduct formation greater than or equal to 0.0 and less than or equal to 30.0)”.
`CCN1C(=O)[C@@H](NC(=O)c2cccc(C(F)(F)F)c2)[C@@H](c2ccc(F)cc2)c2c(CNC(=O)/C(C#N)=C/C3CC3)nn(-c3ccccc3)c21` (racemic) [Compound I-217] was tested, and the “% Adduct Formation” value was “+ (MS Emax % adduct formation greater than or equal to 0.0 and less than or equal to 30.0)”.
`CCN1C(=O)[C@@H](NC(=O)c2cccc(C(F)(F)F)c2)[C@@H](c2ccc(F)cc2)c2c(CN(C)C(=O)/C=C/C(F)(F)F)nn(-c3ccccc3)c21` (racemic) [Compound I-219] was tested, and the “% Adduct Formation” value was “+ (MS Emax % adduct formation greater than or equal to 0.0 and less than or equal to 30.0)”.
`CCN1C(=O)[C@@H](NC(=O)c2cccc(C(F)(F)F)c2)[C@@H](c2ccc(F)cc2)c2c(CNC(=O)/C=C/CN(C)C)nn(-c3ccccc3)c21` (racemic) [Compound I-220] was tested, and the “% Adduct Formation” value was “+ (MS Emax % adduct formation greater than or equal to 0.0 and less than or equal to 30.0)”.
With `CCN1C(=O)[C@@H](NC(=O)c2cccc(C(F)(F)F)c2)[C@@H](c2ccc(F)cc2)c2c(CNC(=O)/C=C/C(F)(F)F)nn(-c3ccccc3)c21` (racemic) [Compound I-221] the “% Adduct Formation” value was “+ (MS Emax % adduct formation greater than or equal to 0.0 and less than or equal to 30.0)”.
For `CC#Cc1nn(-c2ccccc2)c2c1[C@H](c1ccc(F)cc1)[C@H](NC(=O)c1cccc(C(F)(F)F)c1)C(=O)N2CC` (racemic) [Compound I-225, rac-N-((4R,5R)-7-ethyl-4-(4-fluorophenyl)-6-oxo-1-phenyl-3-(prop-1-yn-1-yl)-4,5,6,7-tetrahydro-1H-pyrazolo[3,4-b]pyridine-5-yl)-3-(trifluoromethyl)benzamide], the “% Adduct Formation” value was “+ (MS Emax % adduct formation greater than or equal to 0.0 and less than or equal to 30.0)”.
